Target: T1, Syk kinase (Homo sapiens, UniProt P43405)
T1 construct: purchased
Experiment: Syk kinase inhibition, Caliper LabChip off-chip mobility-shift kinase assay
Assay type: biochemical
Settings: Caliper LabChip assay; read-out: Syk Enzyme IC50
Method in brief: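 Purified Syk pre-incubated 15 min with compound in 100 mM HEPES pH 7.5, 1 mM DTT, 10 mM MgCl2 or MnCl2, 0.002% Brij-35, then 1.5 μM fluorescein peptide and ATP at apparent KM added; 1–1.5 h at room temperature, 4% DMSO, EDTA stop. Microfluidic mobility-shift product/substrate conversion gave % inhibition; IC50 from 12-point series (10–0.00003 μM) by 4-parameter fit.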

Structure (SMILES) | IC50
CC(C)(C)Nc1nc(Nc2cnccn2)cc2ccn(CC(O)CO)c(=O)c12 (stereo not drawn) [compound 664, 8-(tert-butylamino)-2-(2,3-dihydroxypropyl)-6-(pyrazin-2-ylamino)-2,7-naphthyridin-1(2H)-one] | 7 nM
CC(C)(C)Nc1nc(Nc2cc(CN3CCOCC3)ccn2)cc2ccn(CCO)c(=O)c12 [compound 603] | 56 nM
CC(C)(C)Nc1nc(Nc2cc(C3(C(N)=O)CC3)ccn2)cc2ccn(CCO)c(=O)c12 [compound 859] | 170 nM
CC(C)(C)Nc1nc(Nc2cc(CN3CCCCC3)ccn2)cc2ccn(CCO)c(=O)c12 [compound 604] | 251 nM
Nc1ncc(-c2cc3ccn(CCO)c(=O)c3c(NC3(CO)CCC3)n2)cn1 [compound 903] | 26 nM
CC(C)(O)COc1cc(Nc2cc3ccn(CCO)c(=O)c3c(NC(C)(C)C)n2)ncn1 [compound 641] | 56 nM
CC(C)(C)Nc1nc(Nc2cc(OC3CCN(CCO)CC3)ncn2)cc2ccn(CCO)c(=O)c12 [compound 646] | 9 nM
CC(C)(C)Nc1nc(Nc2cc(/C(N)=N/O)ccn2)cc2ccn(CCO)c(=O)c12 [compound 869] | 6 nM
CC(=O)c1cc(Nc2cc3ccn(CCO)c(=O)c3c(NC(C)(C)C)n2)ncn1 [compound 633, 6-(6-acetylpyrimidin-4-ylamino)-8-(tert-butylamino)-2-(2-hydroxyethyl)-2,7-naphthyridin-1(2H)-one] | 273 nM
CC(C)(C)Nc1nc(Nc2cc(C3CCN(CCO)CC3)ncn2)cc2ccn(CCO)c(=O)c12 [compound 640] | 116 nM
CC(C)(C)Nc1nc(Nc2c[n+]([O-])ccn2)cc2ccn(C[C@@H](O)CO)c(=O)c12 [compound 675] | 6 nM
CC(C)(C)Nc1nc(Nc2cnccn2)c(Cl)c2ccn(CCO)c(=O)c12 [compound 837] | 1060 nM
CC(CO)c1ccnc(Nc2cc3ccn(CCO)c(=O)c3c(NC(C)(C)C)n2)c1 (stereo not drawn) [compound 864] | 2 nM
CC(C)(C)Nc1nc(Nc2cc(C(F)(F)CO)ccn2)cc2ccn(CCO)c(=O)c12 [compound 871] | < 1.27 nM
COCCOc1cc(Nc2cc3ccn(CC(O)CO)c(=O)c3c(NC(C)(C)C)n2)ncn1 (stereo not drawn) [compound 885] | 78 nM
CCn1ccc2cc(Nc3cc(C)ccn3)nc(NC(C)(C)CCO)c2c1=O [compound 782] | 217 nM
CC(C)(C)Nc1nc(-c2cnc(N)nc2)cc2c(Cl)cn(CCO)c(=O)c12 [compound 666] | 28 nM
CC(C)(C)Nc1nc(Nc2cc(C(C)(C)O)ccn2)cc2ccn(CC(N)=O)c(=O)c12 [compound 726] | 108 nM
O=c1c2c(N[C@H]3CC[C@@H](O)CC3)nc(Nc3cnccn3)cc2ccn1CCN1CCOCC1 [compound 994] | 108 nM
CC(C)(C)Nc1nc(Nc2cc(CCO)ccn2)cc2ccn(CCO)c(=O)c12 [compound 857] | 4 nM
Nc1nc(Nc2cnccn2)cc2ccn(CCO)c(=O)c12 [compound 811] | 651 nM

The next lines start with the values.

IC50 | Structure (SMILES)
132 nM | O=C(Cn1ccc2cc(Nc3cnccn3)nc(N[C@H]3CC[C@@H](O)CC3)c2c1=O)N1CCOCC1 [compound 1007]
24 nM | NC(=O)Cn1ccc2cc(-c3cnc(N)nc3)nc(NC3CCOCC3)c2c1=O [compound 750]
26 nM | CCn1ccc2cc(Nc3cnccn3)nc(NC3CCCC(O)C3)c2c1=O (stereo not drawn) [compound 973]
70 nM | N#CCn1ccc2cc(-c3cnc(N)nc3)nc(NC3CCOCC3)c2c1=O [compound 751]
58 nM | CCn1ccc2cc(Nc3cnccn3)nc(N[C@@H]3CC[C@@H](CO)C3)c2c1=O [compound 791]
20 nM | [2H][C@]1(O)CC[C@H](Nc2nc(Nc3cc(C)ccn3)cc3ccn(CC)c(=O)c23)CC1 [compound 990]
145 nM | CCn1ccc2cc(Nc3cnccn3)nc(NC3CCS(=O)(=O)C3)c2c1=O (stereo not drawn) [compound 971]
158 nM | C[C@@H](CO)Nc1nc(Nc2cnccn2)cc2ccn(CCN3CCOCC3)c(=O)c12 [compound 996]
8 nM | CC1(Nc2nc(Nc3cnccn3)cc3cc[nH]c(=O)c23)CC1 [compound 839]

Same assay, conditions: read-out: Syk Enzyme IC50

Structure (SMILES) | IC50
CCn1ccc2cc(Nc3cc(C)ccn3)nc(N[C@H]3CCOC3)c2c1=O [compound 361] | 30 nM
Cn1ccc2cc(Nc3ccccn3)nc(N)c2c1=O [compound 572] | 3270 nM
CCNC(=O)Cn1ccc2cc(Nc3cnccn3)nc(NC(C)C)c2c1=O [compound 321] | 177 nM
Cc1ccnc(Nc2cc3ccn(CCO)c(=O)c3c(N[C@H]3CCOC3)n2)c1 [compound 369] | 12 nM
Cc1ccnc(Nc2cc3ccn(CCO)c(=O)c3c(N[C@H]3CCC[C@H]3O)n2)c1 (racemic) [compound 368] | 16 nM
Cc1ccnc(Nc2cc3ccn(C)c(=O)c3c(NC(C)(C)CO)n2)c1 [compound 499] | 31 nM
Cc1ccnc(Nc2cc3ccn(C)c(=O)c3c(NC(C)(C)CO)n2)c1 [compound 486] | 45 nM
CN(C)CCn1ccc2cc(Nc3cnccn3)nc(N[C@H]3CC[C@@H](O)CC3)c2c1=O [compound 387] | 33 nM
CCn1ccc2cc(Nc3cc(C)ccn3)nc(NC(C)(C)C)c2c1=O [compound 525] | 242 nM
CCCc1ccnc(Nc2cc3ccn(CC)c(=O)c3c(NC(C)C)n2)c1 [compound 306] | 612 nM

Continued, values first:

IC50 | Structure (SMILES)
55 nM | COc1cncc(-c2cc3cc[nH]c(=O)c3c(Nc3ccc(CCN4CCN(CCC#N)CC4)cc3)n2)n1 [compound 66]
864 nM | Cc1cc(Nc2nc(C(C)C)cc3cc[nH]c(=O)c23)ccc1C1CCN(C2CC2)CC1 [compound 231]
384 nM | Nc1ncc(-c2cc3cc[nH]c(=O)c3c(NCC3CC3)n2)cn1 [compound 189]
181 nM | COc1cncc(-c2cc3cc[nH]c(=O)c3c(Nc3ccc(C4CCN(C(=O)N5CCOCC5)CC4)c(C)c3)n2)n1 [compound 115]
233 nM | COc1ccc(Nc2nc(Nc3cc(C)ccn3)cc3cc[nH]c(=O)c23)cc1OC [compound 371]
108 nM | Nc1ncc(-c2cc3c(F)c[nH]c(=O)c3c(Nc3ccc(N4CCOCC4)cc3)n2)cn1 [compound 428]
51 nM | CC(C)Nc1nc(Nc2cc(C(N)=O)ccn2)cc2cc[nH]c(=O)c12 [compound 514]
24 nM | COc1cncc(-c2cc3cc[nH]c(=O)c3c(Nc3ccc(C4CCN(CCC(N)=O)CC4)c(C)c3)n2)n1 [compound 158]
183 nM | CCN1CCN(CCc2ccc(Nc3nc(Nc4cc(C(F)(F)F)ccn4)cc4cc[nH]c(=O)c34)cc2)CC1 [compound 520]
710 nM | O=c1[nH]ccc2cc(Nc3ccc([N+](=O)[O-])cn3)nc(Nc3ccc(N4CCOCC4)cc3)c12 [compound 565]
35 nM | CCN1CCN(C(=O)c2ccc(Nc3nc(-c4cncc(OC)n4)cc4cc[nH]c(=O)c34)cc2)CC1 [compound 64]
631 nM | CCN1CCN(CCc2ccc(Nc3nc(Nc4ccc(C(F)(F)F)cn4)cc4cc[nH]c(=O)c34)cc2)CC1 [compound 556]
140 nM | COc1ncc(-c2cc3cc[nH]c(=O)c3c(Nc3ccc(CCN4CCCN(C)CC4)cc3)n2)cn1 [compound 436]
501 nM | Cc1ccnc(Nc2cc3cc[nH]c(=O)c3c(NCCO)n2)c1 [compound 561]
10 nM | CCn1ccc2cc(Nc3cnccn3)nc(N[C@H]3CC[C@@H](O)CC3)c2c1=O [compound 356]
335 nM | O=c1[nH]ccc2cc(Nc3ccccn3)nc(NC3CCOCC3)c12 [compound 297]
70.8 nM | CCn1ccc2cc(Nc3cc(C)ccn3)nc(N[C@@H]3CC[C@H](O)C3)c2c1=O [compound 426]
69 nM | CCn1ccc2cc(-c3cnc(N)nc3)nc(NC3CC3)c2c1=O [compound 37]

IC50 | Structure (SMILES)
122 nM | COc1cncc(-c2cc3cc[nH]c(=O)c3c(Nc3ccc(CCn4cncn4)cc3)n2)n1 [compound 24]
15 nM | Nc1ncc(-c2cc3cc[nH]c(=O)c3c(N3CCCC3)n2)cn1 [compound 181]
7 nM | Cc1ccnc(Nc2cc3ccn(C)c(=O)c3c(Nc3ccc(C4CCNCC4)cc3)n2)c1 [compound 308]
652 nM | Cc1ncc(-c2cc3cc[nH]c(=O)c3c(Nc3ccc([C@H]4CC[C@@H](N5CCOCC5)CC4)cc3)n2)cn1 [compound 11]
117 nM | Nc1ncc(-c2cc3cc[nH]c(=O)c3c(NCC(F)(F)F)n2)cn1 [compound 450]
300 nM | CCN1CCN(CCc2ccc(Nc3nc(-c4cnn(CC(C)C)c4)cc4c(F)c[nH]c(=O)c34)cc2)CC1 [compound 445]
423 nM | CCC(C)Nc1nc(Nc2ccc(F)cn2)cc2cc[nH]c(=O)c12 (stereo not drawn) [compound 264]
289 nM | CCN1CCN(CCc2ccc(Nc3nc(-c4cncnc4)cc4c(F)c[nH]c(=O)c34)cc2)CC1 [compound 438]
14 nM | COc1cncc(-c2cc3cc[nH]c(=O)c3c(Nc3ccc(C(=O)NCCN4CCCC4)cc3)n2)n1 [compound 82]
69 nM | Cc1ccnc(Nc2cc3ccn(C)c(=O)c3c(Nc3ccc(C(=O)N4CCOCC4)cc3)n2)c1 [compound 500]
163 nM | Cc1ncc(-c2cc3cc[nH]c(=O)c3c(Nc3ccc(N4C[C@@H](C)O[C@@H](C)C4)nc3)n2)cn1 [compound 17]
145 nM | Cc1ccnc(Nc2cc3cc[nH]c(=O)c3c(NC3CCOCC3)n2)c1 [compound 293]
2680 nM | Cc1ccnc(Nc2cc3cc[nH]c(=O)c3c(Nc3ccc(N4CCO[C@H](C)C4)c(C)c3)n2)c1 [compound 584]
49 nM | Cc1ncc(-c2cc3cc[nH]c(=O)c3c(Nc3ccc([C@H]4CC[C@H](N5CCOCC5)CC4)cc3)n2)cn1 [compound 1]
204 nM | COCC(Cl)C(=O)N1CCC(c2ccc(Nc3nc(-c4cncc(OC)n4)cc4cc[nH]c(=O)c34)cc2C)CC1 (stereo not drawn) [compound 90]
38 nM | COc1cncc(-c2cc3cc[nH]c(=O)c3c(Nc3ccc(C4CCN(CCC(=O)N(C)C)CC4)c(C)c3)n2)n1 [compound 159]
208 nM | C[C@@H]1CN(c2ccc(Nc3nc(/C=C/C(=O)O)cc4cc[nH]c(=O)c34)cn2)CCO1 [compound 241]

Source: patent US20110053897A1 (IRM LLC, priority 2009, published 2011)
